What was measured:
[1] = target: T1, Inositol monophosphatase 1 (Bos taurus, UniProt P20456); test: Tested for the inhibitory activity against bovine inositol monophosphatase by measuring concentration inhibiting the production of [14C]inositol from racemic inositol monophosphate (1) containing [14C]-1
T1 sequence (P20456 whole entry): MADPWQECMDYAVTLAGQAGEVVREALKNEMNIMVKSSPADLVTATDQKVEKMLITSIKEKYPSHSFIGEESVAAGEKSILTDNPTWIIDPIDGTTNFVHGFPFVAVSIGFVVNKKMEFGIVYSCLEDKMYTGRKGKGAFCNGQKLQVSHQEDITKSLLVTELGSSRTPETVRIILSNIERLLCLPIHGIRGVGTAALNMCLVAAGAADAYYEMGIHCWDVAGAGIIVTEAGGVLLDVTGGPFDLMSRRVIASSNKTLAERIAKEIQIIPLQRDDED

[2] = target: T2, Inositol monophosphatase 1 (Bos taurus) (UniProt P20456); test: Activity against the bovine inositol monophosphatase was determined by rate of release of inorganic phosphate at 1 mM substrate concentration, 1 mM of inositol-1-phosphate (1).
T2 sequence (whole entry): T1 sequence (P20456 whole entry)

Compound | IC50 [1] [µM] | Activity [2]
O=P(O)(O)O[C@H]1CO[C@H](CO)[C@H]1O | 2900 | 0.65
O=P(O)(O)O[C@H]1CCC[C@H]1O | 5000 | –
O=P(O)(O)[C@H]1CC[C@H](O)C[C@H]1O | 7 | –
Nc1ncnc2c1ncn2[C@@H]1O[C@H](CO)[C@@H](O)[C@H]1OP(=O)(O)O | 1300 | 0.48
O=P(O)(O)O[C@H]1CC[C@@H](CO)[C@H]1O | 310 | < 0.05
O=P(O)(O)O[C@H]1COC[C@H]1O | 3600 | 0.53
O=P(O)(O)O[C@H]1CC[C@H](CO)[C@H]1O | 2100 | < 0.05
O=P(O)(O)O[C@@H]1CO[C@@H](CO)[C@@H]1O | 1800 | 0.53

Source: ChEMBL document CHEMBL1127105, “Adenosine-2-monophosphate derivatives: Structural requirements as substrates for inositol monophosphatase” (Bioorg Med Chem Lett, 1993)
